{
  "source": "ChEMBL document CHEMBL1134496",
  "about": "“An optimized protein kinase C activating diacylglycerol combining high binding affinity (Ki) with reduced lipophilicity (log P)” (J Med Chem, 2001)",
  "data": [
    {"test": "Partition coefficient (logP)", "format": "physicochemical", "conditions": "octanol/water", "values": [
      {"smiles": "CCCC(=O)O[C@@H]1[C@@H](C)[C@@]2(O)[C@@H](C=C(CO)C[C@]3(O)C(=O)C(C)=C[C@@H]23)[C@@H]2C(C)(C)[C@]12OC(=O)CCC", "logP": 3.4},
      {"smiles": "CC(C)C(CC(=O)OC[C@H](CO)OC(=O)CC(C(C)C)C(C)C)C(C)C", "logP": 5.79},
      {"smiles": "CC(C)CC(=O)OC[C@H](CO)OC(=O)CC(C)C", "logP": 2.16},
      {"smiles": "CC(C)CC(=O)OC[C@H](CO)OC(=O)CC(C(C)C)C(C)C", "logP": 3.97},
      {"smiles": "CC(C)=CC(=O)OC[C@H](CO)OC(=O)CC(C)C", "logP": 2.07},
      {"smiles": "CC(C)CC(=O)O[C@@H](CO)COC(=O)CC(C(C)C)C(C)C", "logP": 3.97},
      {"smiles": "CC(C)C(=CC(=O)OC[C@H](CO)OC(=O)CC(C(C)C)C(C)C)C(C)C", "logP": 5.71},
      {"smiles": "CC(C)C(=CC(=O)OC[C@H](CO)OC(=O)C=C(C(C)C)C(C)C)C(C)C", "logP": 5.62},
      {"smiles": "CC(C)C(=CC(=O)O[C@@H](CO)COC(=O)CC(C(C)C)C(C)C)C(C)C", "logP": 5.71},
      {"smiles": "CC(C)=CC(=O)O[C@@H](CO)COC(=O)CC(C(C)C)C(C)C", "logP": 3.88},
      {"smiles": "CC(C)CC(=O)OC[C@H](CO)OC(=O)C=C(C(C)C)C(C)C", "logP": 3.89},
      {"smiles": "CCCCCCCC(=O)OC[C@H](CO)OC(=O)CCCCCCC", "logP": 5.3},
      {"smiles": "CC(C)CC(=O)O[C@@H](CO)COC(=O)C=C(C(C)C)C(C)C", "logP": 3.89},
      {"smiles": "CC(C)=CC(=O)O[C@@H](CO)COC(=O)C=C(C(C)C)C(C)C", "logP": 3.8},
      {"smiles": "CC(C)=CC(=O)OC[C@H](CO)OC(=O)C=C(C)C", "logP": 1.99},
      {"smiles": "CC(C)=CC(=O)O[C@@H](CO)COC(=O)CC(C)C", "logP": 2.07},
      {"smiles": "CC(C)=CC(=O)OC[C@H](CO)OC(=O)CC(C(C)C)C(C)C", "logP": 3.88},
      {"smiles": "CC(C)=CC(=O)OC[C@H](CO)OC(=O)C=C(C(C)C)C(C)C", "logP": 3.8},
      {"smiles": "CCCCCCCC/C=C/CCCCCCCC(=O)OC[C@H](CO)OC(C)=O", "logP": 7},
      {"smiles": "CC(=O)O[C@@]12C[C@@H](C)[C@@]3(O)[C@@H](C=C(CO)C[C@]4(O)C(=O)C(C)=C[C@@H]34)[C@@H]1C2(C)C", "note": "[PROSTRATIN]", "logP": 1.9}
    ]}
  ]
}
